From patent US11299478B2, “2-cyanopyrimidin-4-yl carbamate or urea derivative or salt thereof, and pharmaceutical composition including same” (HANLIM PHARMACEUTICAL CO., LTD., priority 2018, dated 2022)

biological target: T1, cathepsin K (Homo sapiens, UniProt P43235); test: Inhibitory activity assay against cathepsin K (enzyme assay); format: biochemical; settings: Z-Phe-Arg-AMC 10 μM, enzyme 1 nM, pH 5.5, 30 minutes
T1 sequence (P43235 115-329): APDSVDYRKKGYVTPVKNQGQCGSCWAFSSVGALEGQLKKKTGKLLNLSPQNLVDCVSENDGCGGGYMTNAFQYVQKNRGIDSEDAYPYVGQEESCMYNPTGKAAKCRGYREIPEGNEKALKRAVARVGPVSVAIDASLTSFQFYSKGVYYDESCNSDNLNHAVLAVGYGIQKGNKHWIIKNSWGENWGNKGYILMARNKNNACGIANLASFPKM
Procedure: In order to measure the enzyme activity of cathepsin K, a buffer solution (pH 5.5) consisting of 50 mM 2-(N-morpholino)ethanesulfonic acid (MES), 2 mM dithiothreitol (DTT), 2.5 mM ethylenediaminetetraacetic acid (EDTA), 0.01% Triton X-100, and 10% dimethyl sulfoxide (DMSO) was prepared. The substrate, the test material, and the enzyme were mixed in the buffer solution in a predetermined concentration. The Z-Phe-Arg-AMC substrate was used in the final concentration of 10 μM. The test material was used in the final concentrations of 10.0 μM, 3.33 μM, 1.11 μM, 0.370 μM, 0.123 μM, 0.0412 μM, 0.0137 μM, 0.00457 μM, 0.00152 μM, and 0.000508 μM, respectively. The cathepsin K enzyme was used in the final concentration of 1 nM. The final volume of the enzyme reaction solution was 10 μL. After reacting the mixture of substrate, test material, and enzyme for 30 minutes, the enzyme activity was measured with the Synergy Neo (Biotek) microplate reader at an absorption wavelength of 355 nm and an emission wavelength of 460 nm. IC50 values were determined using 4-parameter logistic curve fit program of GraphPad Prism.

Row | Structure (SMILES) | IC50
1 | N#Cc1nccc(C2(NC(=O)OCc3ccccc3)CCCC2)n1 [Example 1, Benzyl (1-(2-cyanopyrimidin-4-yl)cyclopentyl)carbamate] | 23 nM
2 | Cc1cccc(COC(=O)NC2(c3ccnc(C#N)n3)CCCC2)c1 [Example 5, 3-methylbenzyl (1-(2-cyanopyrimidin-4-yl)cyclopentyl)carbamate] | 161 nM
3 | COc1cccc(COC(=O)NC2(c3ccnc(C#N)n3)CCCC2)c1 [Example 6, 3-methoxybenzyl (1-(2-cyanopyrimidin-4-yl)cyclopentyl)carbamate] | 179 nM
4 | N#Cc1nccc(C2(NC(=O)OCc3cccc(Cl)c3)CCCC2)n1 [Example 8, 3-chlorobenzyl (1-(2-cyanopyrimidin-4-yl)cyclopentyl)carbamate] | 285 nM
5 | N#Cc1cccc(COC(=O)NC2(c3ccnc(C#N)n3)CCCC2)c1 [Example 9, 3-cyanobenzyl (1-(2-cyanopyrimidin-4-yl)cyclopentyl)carbamate] | 490 nM
6 | N#Cc1nccc(C2(NC(=O)OCc3cccc(-c4ccc(N5CCOCC5)cc4)c3)CCCC2)n1 [Example 32, (4′-morpholino-[1,1′-biphenyl]-3-yl)methyl (1-(2-cyanopyrimidin-4-yl)cyclopentyl)carbamate] | ≥ 10000 nM
7 | Cn1ncc2ccc(-c3ccc(COC(=O)NC4(c5ccnc(C#N)n5)CCCC4)cc3)cc21 [Example 34, 4-(1-methyl-1H-indazol-6-yl)benzyl (1-(2-cyanopyrimidin-4-yl)cyclopentyl)carbamate] | 2040 nM
8 | Cc1ccccc1NC(=O)NC1(c2ccnc(C#N)n2)CCCC1 [Example 37, 1-(1-(2-cyanopyrimidin-4-yl)cyclopentyl)-3-(ortho-tolyl)urea] | 113 nM
9 | Cc1ccc(NC(=O)NC2(c3ccnc(C#N)n3)CCCC2)cc1 [Example 39, 1-(1-(2-cyanopyrimidin-4-yl)cyclopentyl)-3-(para-tolyl)urea] | 108 nM
10 | N#Cc1nccc(C2(NC(=O)NCCc3ccc(S(N)(=O)=O)cc3)CCCC2)n1 [Example 45, 4-(2-(3-(1-(2-cyanopyrimidin-4-yl)cyclopentyl)ureido)ethyl)benzenesulfonamide] | 3430 nM
11 | Cc1cccc(CNC(=O)NC2(c3ccnc(C#N)n3)CCCC2)c1 [Example 47, 1-(1-(2-cyanopyrimidin-4-yl)cyclopentyl)-3-(3-methylbenzyl)urea] | 105 nM
12 | COc1ccc(CNC(=O)NC2(c3ccnc(C#N)n3)CCCC2)cc1OC [Example 49, 1-(1-(2-cyanopyrimidin-4-yl)cyclopentyl)-3-(3,4-dimethoxybenzyl)urea] | 590 nM
13 | N#Cc1nccc(C2(NC(=O)Nc3ccc(N4CCNCC4)cc3)CCCC2)n1 [Example 52, 1-(1-(2-cyanopyrimidin-4-yl)cyclopentyl)-3-(4-(piperazin-1-yl)phenyl)urea] | 608 nM
14 | N#Cc1nccc(C2(NC(=O)NCc3ccoc3)CCCC2)n1 [Example 53, 1-(1-(2-cyanopyrimidin-4-yl)cyclopentyl)-3-(furan-3-ylmethyl)urea] | 320 nM

Further lines, results first:

Row | IC50 | Structure (SMILES)
15 | 517 nM | N#Cc1nccc(C2(NC(=O)NCc3cccc(C(F)(F)F)c3)CCCC2)n1 [Example 57, 1-(1-(2-cyanopyrimidin-4-yl)cyclopentyl)-3-(3-(trifluoromethyl)benzyl)urea]
16 | 116 nM | N#Cc1nccc(C2(NC(=O)NCc3ccc(C(F)(F)F)cc3)CCCC2)n1 [Example 58, 1-(1-(2-cyanopyrimidin-4-yl)cyclopentyl)-3-(4-(trifluoromethyl)benzyl)urea]
17 | 174 nM | N#Cc1nccc(C2(NC(=O)Nc3ccccc3C(F)(F)F)CCCC2)n1 [Example 59, 1-(1-(2-cyanopyrimidin-4-yl)cyclopentyl)-3-(2-(trifluoromethyl)phenyl)urea]
18 | 292 nM | N#Cc1nccc(C2(NC(=O)Nc3ccc(C(F)(F)F)cc3)CCCC2)n1 [Example 61, 1-(1-(2-cyanopyrimidin-4-yl)cyclopentyl)-3-(4-(trifluoromethyl)phenyl)urea]
19 | 219 nM | COc1ccccc1CNC(=O)NC1(c2ccnc(C#N)n2)CCCC1 [Example 68, 1-(1-(2-cyanopyrimidin-4-yl)cyclopentyl)-3-(2-methoxybenzyl)urea]
20 | 552 nM | COc1cccc(CNC(=O)NC2(c3ccnc(C#N)n3)CCCC2)c1 [Example 69, 1-(1-(2-cyanopyrimidin-4-yl)cyclopentyl)-3-(3-methoxybenzyl)urea]
21 | 270 nM | COc1ccc(CNC(=O)NC2(c3ccnc(C#N)n3)CCCC2)cc1 [Example 70, 1-(1-(2-cyanopyrimidin-4-yl)cyclopentyl)-3-(4-methoxybenzyl)urea]
22 | 547 nM | N#Cc1nccc(C2(NC(=O)Nc3cccc(O)c3)CCCC2)n1 [Example 71, 1-(1-(2-cyanopyrimidin-4-yl)cyclopentyl)-3-(3-hydroxyphenyl)urea]
23 | 331 nM | N#Cc1nccc(C2(NC(=O)Nc3ccc(S(N)(=O)=O)cc3)CCCC2)n1 [Example 72, 4-(3-(1-(2-cyanopyrimidin-4-yl)cyclopentyl)ureido)benzenesulfonamide]
24 | 315 nM | N#Cc1nccc(C2(NC(=O)Nc3ccccc3O)CCCC2)n1 [Example 73, 1-(1-(2-cyanopyrimidin-4-yl)cyclopentyl)-3-(2-hydroxyphenyl)urea]
25 | 573 nM | Cn1ncc2cc(NC(=O)NC3(c4ccnc(C#N)n4)CCCC3)ccc21 [Example 76, 1-(1-(2-cyanopyrimidin-4-yl)cyclopentyl)-3-(1-methyl-1H-indazol-5-yl)urea]
26 | 3080 nM | COc1ccccc1NC(=O)NC1(c2ccnc(C#N)n2)CCCC1 [Example 79, 1-(1-(2-cyanopyrimidin-4-yl)cyclopentyl)-3-(2-methoxyphenyl)urea]
27 | 157 nM | COc1cccc(NC(=O)NC2(c3ccnc(C#N)n3)CCCC2)c1 [Example 80, 1-(1-(2-cyanopyrimidin-4-yl)cyclopentyl)-3-(3-methoxyphenyl)urea]
28 | 162 nM | COc1ccc(NC(=O)NC2(c3ccnc(C#N)n3)CCCC2)cc1 [Example 81, 1-(1-(2-cyanopyrimidin-4-yl)cyclopentyl)-3-(4-methoxyphenyl)urea]
29 | 147 nM | N#Cc1nccc(C2(NC(=O)Nc3cccc(-c4ccc(C(F)(F)F)cc4)c3)CCCCC2)n1 [Example 112, 1-(1-(2-cyanopyrimidin-4-yl)cyclohexyl)-3-(4′-(trifluoromethyl)-[1,1′-biphenyl]-3-yl)urea]
30 | 111 nM | N#Cc1nccc(C2(NC(=O)Nc3ccc(C(=O)O)cc3)CCCCC2)n1 [Example 135, 4-(3-(1-(2-cyanopyrimidin-4-yl)cyclohexyl)ureido)benzoic acid]
31 | 76 nM | CC(C)C1CCN(c2ccc(NC(=O)NC3(c4ccnc(C#N)n4)CCCCC3)cc2)CC1 [Example 145, 1-(1-(2-cyanopyrimidin-4-yl)cyclohexyl)-3-(4-(4-isopropylpiperidin-1-yl)phenyl)urea]
32 | 2400 nM | COCCc1ccc(OCc2ccc(-c3ccc(NC(=O)NC4(c5ccnc(C#N)n5)CCCCC4)cc3)cc2)cc1 [Example 152, 1-(1-(2-cyanopyrimidin-4-yl)cyclohexyl)-3-(4′-((4-(2-methoxyethyl)phenoxy)methyl)-[1,1′-biphenyl]-4-yl)urea]
33 | 136 nM | COC(=O)CCC#Cc1ccc(-c2ccc(NC(=O)NC3(c4ccnc(C#N)n4)CCCCC3)cc2)cc1 [Example 175, methyl 5-(4′-(3-(1-(2-cyanopyrimidin-4-yl)cyclohexyl)ureido)-[1,1′-biphenyl]-4-yl)pent-4-ynoate]
